According to US6469013B2, “Therapeutic compounds” (Parker Hughes Institute, priority 1998, dated 2002):

What was measured:
[1] = test system: HL-60 (AML); experiment: Methylcellulose clonogenic assay; format: cell-based; details: HL-60, 100 μM
Protocol: (§1) The antileukemic activity of compound 6 against clonogenic tumor cells was examined using a methylcellulose colony assay system (Uckun, F. M., et al., J. Exp. Med. 163: 347-368, 1986; Messinger, Y., et al., Clin Cancer Res. 4: 165-70, 1998). In brief, cells (10^5/ml in RPMI-10% FBS) were treated overnight at 37° C. with compound 6 at varying concentrations. After treatment, cells were washed twice, plated at 10^4 or 10^5 cells/ml in RPMI-10% FMS-0.9% methylcellulose in Petri dishes, and cultured for 7 days at 37° C. in a humidified 5% CO2 incubator. Subsequently, leukemic cell (or tumor cell) colonies were enumerated using an inverted phase-contrast microscope. The percent inhibition of colony formation was calculated using the following formula:
(§2) % Inhibition=1−mean number of colonies in test culture×100 mean number of colonies in control culture

[2] = test system: M24-MET (Melanoma); experiment: Methylcellulose clonogenic assay; format: cell-based
Protocol: as §1, §2

[3] = test system: DAUDI (B-ALL); experiment: Methylcellulose clonogenic assay; format: cell-based
Protocol: as §1, §2

[4] = test system: BT20 (Breast Cancer); experiment: Methylcellulose clonogenic assay; format: cell-based
Protocol: as §1, §2

[5] = test system: SQ20B (Squamous Carcinoma); experiment: Methylcellulose clonogenic assay; format: cell-based
Protocol: as §1, §2

[6] = test system: RAMOS (B-ALL); experiment: Methylcellulose clonogenic assay; format: cell-based
Protocol: as §1, §2

[7] = test system: MOLT-3 (T-ALL); experiment: Methylcellulose clonogenic assay; format: cell-based; details: MOLT-3, 100 μM
Protocol: as §1, §2

[8] = test system: NALM-6 cells; experiment: In situ TUNEL apoptosis assay; format: cell-based; details: Homo sapiens, 10-500 μM, 48 hours, read-out: EC50, percentage of apoptotic cells (TUNEL)
Source text: Apoptosis Assays Cells were examined for apoptotic changes after treatment with compound 6 by the in situ terminal […] transferase-mediated dUTP end-labeling (TUNEL) assay using the ApopTag apoptosis detection kit (Oncor, Gaithersburg, Md.) according to the manufacturer's recommendations, as detailed in our earlier reports (Zhu, D. -M., et al., Clin. Can. Res. 4: 2967-2976, 1998; D'Cruz, O., P., G., and Uckun, F. M. Biology of Reproduction. 58: 1515-1526, 1998).
To confirm that compound 6 can induce apoptosis in leukemia cells, the TdT-mediated labeling of 3′-OH termini with digoxigenin-conjugated UTP using the in situ TUNEL assay method combined with confocal laser scanning microscopy was employed. At 48 hours after treatment with compound 6 at concentrations ranging from 10 μM to 500 μM, NALM-6 cells were examined for digoxigenin-dUTP incorporation using FITC-conjugated anti-digoxigenin (green fluorescence) and propidium iodide counterstaining (red fluorescence). […] FIG. 8B.1 and 8B.2 depict the two-color confocal microscopy images of vehicle-treated control cells and cells treated with 100 μM compound 6. […] Because of their exquisite sensitivity in detecting DNA fragments released from a small percentage of apoptotic cells, the DNA gel assays of apoptosis are uniquely suited to examine the nonspecific toxicity of new antileukemic agents.

[9] = test system: C57BL/6 recipients; experiment: Allogeneic islet transplantation (BALB/c islets); format: in vivo, mouse
Protocol: Islets were hand-picked 3-4 times under the dissecting scope before islets were free of exocrine tissue, vessels, lymph nodes and ducts and ready for transplantation.
Four hundred islets were placed in Hamilton syringe and transplanted under the left kidney capsule of each diabetic recipient mouse. Recipients were rendered diabetic with a single i.p. dose of streptozotocin (200 mg/kg; Sigma, St. Louis, Mo.) 1 wk before transplantation. Blood glucose level was measured by One Touch Profile glucose monitor system (Lifescan, Milpitas, Calif.). […] Allograft function was monitored by serial blood glucose measurements. […] All injections were given i.p.
Kidneys bearing grafts were removed, fixed in 10% formalin and embedded in paraffin. Serial sections of graft area were cut and stained with hematoxylin and eosin. For insulin staining, sections were stained by immunoperoxidase method using 1:100 dilution of polyclonal guinea pig anti-insulin antibody (Gpx Insulin, Dako, Carpinteria, Calif.) and 1:100 dilution of secondary antibody conjugated to horse radish peroxidase (Guinea Pig Immunoglobulins HRP, Dako, Carpinteria, Calif.). Sections were briefly counterstained with hematoxylin and mounted for light microscopic examination.

Q: With `COc1cc2ncnc(Nc3ccc(O)cc3)c2cc1OC` [WHI-P131, 4-(4′-hydroxyl-phenyl)-amino-6,7-dimethoxyquinazoline] as the compound, how does the “Mean No. of Colonies/10^5 Cells” value [1] read?
A: 1 (1,1)

Q: And the inhibition at 100 µM ([1]; Homo sapiens)?
A: > 99.9%

Q: What about the “Mean No. of Colonies/10^5 Cells” value ([2]; 0.3 μM) of the same compound?
A: 312 (238, 386)

Q: What about the “Mean No. of Colonies/10^5 Cells” value ([2]; 1 μM) of the same compound?
A: 287 (157, 418)

Q: What about the “Mean No. of Colonies/10^5 Cells” value ([2]; 3 μM) of the same compound?
A: 390 (280, 500)

Q: And the “Mean No. of Colonies/10^5 Cells” value ([2]; 10 μM)?
A: 301 (249, 353)

Q: What about the “Mean No. of Colonies/10^5 Cells” value ([2]; 30 μM) of the same compound?
A: 599 (534, 664)

Q: What about the inhibition at 0.3 µM ([2]; Homo sapiens, M24met, 0.3 μM) of the same compound?
A: 0%

Q: What about the inhibition at 1 µM ([2]; Homo sapiens, M24met, 1 μM) of the same compound?
A: 0%

Q: And the inhibition at 3 µM ([2]; Homo sapiens, M24met, 3 μM)?
A: 0%

Q: What about the inhibition at 10 µM ([2]; Homo sapiens, M24met, 10 μM) of the same compound?
A: 0%

Q: And the inhibition at 30 µM ([2]; Homo sapiens, M24met, 30 μM)?
A: 0%

Q: What about the “Mean No. of Colonies/10^5 Cells” value ([3]; DAUDI, 0.3 μM) of the same compound?
A: 2030 (1700, 2360)

Q: And the “Mean No. of Colonies/10^5 Cells” value ([3]; DAUDI, 1 μM)?
A: 2136 (1568, 2704)

Q: And the “Mean No. of Colonies/10^5 Cells” value ([3]; DAUDI, 3 μM)?
A: 1406 (988, 1824)

Q: And the “Mean No. of Colonies/10^5 Cells” value ([3]; DAUDI, 10 μM)?
A: 1149 (1054, 1244)

Q: What about the “Mean No. of Colonies/10^5 Cells” value ([3]; DAUDI, 30 μM) of the same compound?
A: 29 (12, 46)

Q: And the EC50 ([3]; Homo sapiens, DAUDI cells, read-out: EC50, inhibition of clonogenic growth)?
A: 18.8 µM

Q: What about the inhibition at 0.3 µM ([3]; Homo sapiens, DAUDI, 0.3 μM) of the same compound?
A: 48.6%

Q: And the inhibition at 1 µM ([3]; Homo sapiens, DAUDI, 1 μM)?
A: 45.9%

Q: What about the inhibition at 3 µM ([3]; Homo sapiens, DAUDI, 3 μM) of the same compound?
A: 64.4%

Q: What about the inhibition at 10 µM ([3]; Homo sapiens, DAUDI, 10 μM) of the same compound?
A: 70.9%

Q: And the inhibition at 30 µM ([3]; Homo sapiens, DAUDI, 30 μM)?
A: 98%

Q: What about the “Mean No. of Colonies/10^5 Cells” value ([4]; BT20, 10 μM) of the same compound?
A: 3298 (2940, 3656)

Q: What about the “Mean No. of Colonies/10^5 Cells” value ([4]; BT20, 100 μM) of the same compound?
A: 2190 (1632, 2748)

Q: What about the inhibition at 10 µM ([4]; Homo sapiens, BT-20, BT20, 10 μM) of the same compound?
A: 0%

Q: What about the inhibition at 100 µM ([4]; Homo sapiens, BT-20, BT20, 100 μM) of the same compound?
A: 18.2%

Q: What about the “Mean No. of Colonies/10^5 Cells” value ([5]; 30 μM) of the same compound?
A: 838 (600, 1076)

Q: And the inhibition at 30 µM ([5]; Homo sapiens)?
A: 0%

Q: What about the “Mean No. of Colonies/10^5 Cells” value ([6]; 30 μM) of the same compound?
A: 2 (0, 4)

Q: And the inhibition at 30 µM ([6]; Homo sapiens)?
A: 99.8%

Q: What about the inhibition at 100 µM ([7]; Homo sapiens) of the same compound?
A: > 99.9%

Q: What about the “Mean No. of Colonies/10^5 Cells” value [7] of the same compound?
A: 1 (1, 1)

Q: What about the EC50 [8] of the same compound?
A: 84.6 µM

Q: What about the “islet allograft mean survival time (MST)” value ([9]; 50 mg/kg daily i.p., controls 14.1±0.9) of the same compound?
A: 24.7±3.4 days

Q: What about the “islet allograft mean survival time (MST)” value ([9]; 75 mg/kg daily i.p.) of the same compound?
A: 25.3±3.8 days
